Measured values from patent publication US7084166B2, “Bis-heterocyclic compounds with antitumour and chemosensitising activity” (Sigma-Tau Industrie Farmaceutichee Riunite S.p.A., priority 2000, dated 2006).

What was measured:
Type in all cases: cell-based
[1] = tested on: NB4 cells (acute promyelocytic leukaemia); assay: Flow cytofluorimetric analysis of cell cycle; design: APOPTOSIS: unit not given here
Description: The first line used was the NB4 cell line, bearing the t(15;17) chromosomal translocation which generates the fusion protein PML/RARα.
(§1) To assess the effect of the tested compounds on the various phases of the cell cycle, on the third day of treatment 500,000 cells were harvested, centrifuged at 1,000 rpm for 10 minutes, washed twice in PBS w/o (PBS without calcium and magnesium) and fixed in a solution of 50% PBS w/o+50% methanol/acetone (1:4 v/v) for at least 1 hour; the cells were then centrifuged as described, washed in PBS w/o and centrifuged again.
(§2) 200 μl of propidium iodide 100 μg/ml and 200 μl of RNase 150 kU/mg were then added to the cell pellet.
(§3) After a 30-min incubation in the dark at room temperature, the samples were analysed by flow cytofluirometry.

[2] = tested on: HL60 cells (acute promyelocytic leukaemia); assay: Cell differentiation by reduction of nitroblue tetrazolium (NBT), with suboptimal ATRA; conditions: combined with suboptimal doses of ATRA; for AC50: Homo sapiens, HL-60, 72 h, 3 days, read-out: AC50 (concentration at which the tested compound induces 50% of cell differentiation)
Description: (§4) The second line used was the HL60 cell line which responds to ATRA (but is less sensitive than the NB4 cell line).
(§5) The HL60 and NB4 cells were seeded at a density of 150,000 cells/ml in RPMI 1640 medium containing 10% foetal calf serum, and were treated with the tested compounds in the presence and absence of suboptimal doses of ATRA (5–10 nM for NB4 and 0.5 μM for HL60, respectively) in the dark, and returned to the incubator for 3 days without ever replacing the culture medium.
(§6) To analyse the differentiative effect of the tested compounds vs ATRA, on the third day of treatment 500,000 viable cells were harvested from each sample, centrifuged for 10 minutes at 1.000 rpm and resuspended in 1 ml of RPMI 1640 medium containing 10% foetal calf serum, 1 mg/ml of nitroblue tetrazolium (NBT) and 100 ng of PMA (phorbol 12-myristate 13-acetate).
(§7) The cells thus resuspended were incubated in the dark at 37° C. for 60 minutes.
(§8) At the end of the incubation, the cell suspension was centrifuged for 10 minutes at 10,000 rpm; the pellet obtained was then resuspended in 1 ml of PBS containing 10% Triton X-100 and sonicated to lysis.
(§9) Spectrophotometric readings of the samples were then taken at a wavelength of 540 nm: samples containing differentiated cells shifted towards a violet colour, whereas control samples and/or samples with non-differentiated cells were colourless or, at any rate, much less intensely coloured.
(§10) The AC50 (Activating Concentration) is the concentration at which the tested compound induces 50% of cell differentiation.
(§11) Fold Induction is the increase in the differentiation value of the cell sample treated with the tested compound +ATRA vs the value of the cell sample treated with ATRA alone. This value provides an indication of the ability (potency) of the tested compound to enhance ATRA induced cell differentiation.

[3] = tested on: NB4 cells (acute promyelocytic leukaemia); assay: as above; conditions: for AC50: Homo sapiens, NB-4, 72 h, 3 days, read-out: AC50 (concentration at which the tested compound induces 50% of cell differentiation); for AC50 / fold induction (differentiation, compound + ATRA vs ATRA alone): combined with suboptimal doses of ATRA, NBT
Description: The first line used was the NB4 cell line, bearing the t(15;17) chromosomal translocation which generates the fusion protein PML/RARα. This line is very sensitive to the differentiative action of pharmacological doses of ATRA (10^−7–10^−6 M).
as §5, §6, §7, §8, §9, §10, §11

[4] = tested on: HL60 cells (acute promyelocytic leukaemia); assay: Flow cytofluorimetric analysis of cell cycle; conditions: day 3
Description: as §4, §5, §1, §2, §3

[5] = compound 1 μM + ATRA 0.01 μM, day 3
[6] = compound 1 μM + ATRA 0.01 μM, day 3, listed as ST1346
[7] = compound 5 μM + ATRA 0.01 μM, day 3
[8] = compound 5 μM + ATRA 0.01 μM, day 3, listed as ST1346
[9] = compound 10 μM + ATRA 0.01 μM, day 3
[10] = compound 10 μM + ATRA 0.01 μM, day 3, listed as ST1346
[11] = compound 50 μM + ATRA 0.01 μM, day 3
[12] = compound 50 μM + ATRA 0.01 μM, day 3, listed as ST1346

Compound `OCCCCC(c1c[nH]c2ccccc12)c1c[nH]c2ccccc12` [ST 1346, 5-hydroxy-1,1-di-(indol-3-yl)-pentane] has an APOPTOSIS [1, 5] of 17.5, a G0/G1 [1, 5] of 57.1 and a G2/M [1, 5] of 13.9. It also gave an S [1, 5] of 29.0, an APOPTOSIS [1, 6] of 14 and a G0/G1 [1, 6] of 61.5. It also gave a G2/M [1, 6] of 12.9, an S [1, 6] of 25.6 and an APOPTOSIS [1, 7] of 17.0. The G0/G1 [1, 7] was 58.4, the G2/M [1, 7] was 13.9 and the S [1, 7] was 27.7. It also gave an APOPTOSIS [1, 8] of 13.5, a G0/G1 [1, 8] of 58.0 and a G2/M [1, 8] of 13.5. The S [1, 8] was 28.5, the APOPTOSIS [1, 9] was 15.0 and the G0/G1 [1, 9] was 58.4. For the same compound, the G2/M [1, 9] was 13.0, the S [1, 9] was 28.6 and the APOPTOSIS [1, 10] was 13. The G0/G1 [1, 10] was 60.0, the G2/M [1, 10] was 12.6 and the S [1, 10] was 27.4. For the same compound, the APOPTOSIS [1, 11] was 10.0, the G0/G1 [1, 11] was 82.2 and the G2/M [1, 11] was 8.0. The S [1, 11] was 9.8, the APOPTOSIS [1, 12] was 17 and the G0/G1 [1, 12] was 84.2. The G2/M [1, 12] was 6.3, the S [1, 12] was 9.5 and the APOPTOSIS ([1]; compound alone 1 μM, day 3) was 23. The G0/G1 ([1]; compound alone 1 μM, day 3) was 46.9, the G2/M ([1]; compound alone 1 μM, day 3) was 15.7 and the S ([1]; compound alone 1 μM, day 3) was 37.4. It also gave an APOPTOSIS ([1]; compound alone 5 μM, day 3) of 24, a G0/G1 ([1]; compound alone 5 μM, day 3) of 47.4 and a G2/M ([1]; compound alone 5 μM, day 3) of 13.8. The S ([1]; compound alone 5 μM, day 3) was 38.8, the APOPTOSIS ([1]; compound alone 10 μM, day 3) was 23 and the G0/G1 ([1]; compound alone 10 μM, day 3) was 50.0. The G2/M ([1]; compound alone 10 μM, day 3) was 14.7, the S ([1]; compound alone 10 μM, day 3) was 35.3 and the APOPTOSIS ([1]; compound alone 50 μM, day 3) was 46. For the same compound, the G0/G1 ([1]; compound alone 50 μM, day 3) was 59.4, the G2/M ([1]; compound alone 50 μM, day 3) was 7.3 and the S ([1]; compound alone 50 μM, day 3) was 33.3. The “effect of the compound alone on cell cycle and apoptosis (in words)” value ([1]; compound alone (ST 1346: high doses)) was “induce growth arrest (in the G0/G1 phase of the cell cycle) and apoptosis”, the AC50 [2] was 14.8 ± 1.6 µM and the “fold induction (differentiation, compound + ATRA vs ATRA alone)” value [2] was 2.7. For the same compound, the AC50 [3] was 1.5 ± 0.5 µM, the “fold induction (differentiation, compound + ATRA vs ATRA alone)” value [3] was 3.0 and the “dose reaching maximal effect in sensitising ATRA-induced terminal differentiation” value ([3]; doses 1, 5, 10, 50 μM with suboptimal ATRA) was 10 µM.
In the case of `Cn1cc(C(CCCCO)c2cn(C)c3ccccc23)c2ccccc21` [ST 1974, 5,5-bis-(1-methyl-1H-indol-3-yl)-1 Pentanol], the AC50 [2] is reported as 9.5 ± 2.6 µM, the “fold induction (differentiation, compound + ATRA vs ATRA alone)” value [2] is reported as 1.6 and the G0/G1 ([4]; compound 1 μM + ATRA 0.5 μM) is reported as 62.0. For the same compound, the G2/M ([4]; compound 1 μM + ATRA 0.5 μM) was 11.7, the S ([4]; compound 1 μM + ATRA 0.5 μM) was 26.3 and the G0/G1 ([4]; compound 5 μM + ATRA 0.5 μM) was 63.8. It also gave a G2/M ([4]; compound 5 μM + ATRA 0.5 μM) of 10.5, an S ([4]; compound 5 μM + ATRA 0.5 μM) of 25.7 and a G0/G1 ([4]; compound 10 μM + ATRA 0.5 μM) of 65.4. The G2/M ([4]; compound 10 μM + ATRA 0.5 μM) was 10.5, the S ([4]; compound 10 μM + ATRA 0.5 μM) was 24.1 and the G0/G1 ([4]; compound 50 μM + ATRA 0.5 μM) was 81.8. It also gave a G2/M ([4]; compound 50 μM + ATRA 0.5 μM) of 10.6, an S ([4]; compound 50 μM + ATRA 0.5 μM) of 7.6 and a G0/G1 ([4]; compound alone 1 μM) of 58.9. It also gave a G2/M ([4]; compound alone 1 μM) of 11.1, an S ([4]; compound alone 1 μM) of 30 and a G0/G1 ([4]; compound alone 5 μM) of 59.3. For the same compound, the G2/M ([4]; compound alone 5 μM) was 11.4, the S ([4]; compound alone 5 μM) was 29.3 and the G0/G1 ([4]; compound alone 10 μM) was 57.8. For the same compound, the G2/M ([4]; compound alone 10 μM) was 12.2, the S ([4]; compound alone 10 μM) was 30 and the G0/G1 ([4]; compound alone 50 μM) was 67.7. It also gave a G2/M ([4]; compound alone 50 μM) of 12.3, an S ([4]; compound alone 50 μM) of 20 and an AC50 [3] of 7.8 ± 2.6 µM. The “fold induction (differentiation, compound + ATRA vs ATRA alone)” value [3] was 1.8.
